Experimental data published in ChEMBL document CHEMBL1909046, “DrugMatrix in vitro pharmacology data”.

How the values were obtained:
Estrogen receptor beta = Estrogen receptor beta (Homo sapiens, UniProt Q92731); conditions: sf9; further: in other assays of this panel Not Active means under 50% inhibition at 10 µM
[1] = biological target: T1, 3-hydroxy-3-methylglutaryl-coenzyme A reductase (Homo sapiens, UniProt P04035); parameters: species or system Escherichia coli;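 further: enzyme inhibition assay of HMG-CoA reductase using radiolabeled [14C]HMG-CoA as substrate; in other assays of this panel Not Active means under 50% inhibition at 10 µM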
T1 sequence (P04035 whole entry): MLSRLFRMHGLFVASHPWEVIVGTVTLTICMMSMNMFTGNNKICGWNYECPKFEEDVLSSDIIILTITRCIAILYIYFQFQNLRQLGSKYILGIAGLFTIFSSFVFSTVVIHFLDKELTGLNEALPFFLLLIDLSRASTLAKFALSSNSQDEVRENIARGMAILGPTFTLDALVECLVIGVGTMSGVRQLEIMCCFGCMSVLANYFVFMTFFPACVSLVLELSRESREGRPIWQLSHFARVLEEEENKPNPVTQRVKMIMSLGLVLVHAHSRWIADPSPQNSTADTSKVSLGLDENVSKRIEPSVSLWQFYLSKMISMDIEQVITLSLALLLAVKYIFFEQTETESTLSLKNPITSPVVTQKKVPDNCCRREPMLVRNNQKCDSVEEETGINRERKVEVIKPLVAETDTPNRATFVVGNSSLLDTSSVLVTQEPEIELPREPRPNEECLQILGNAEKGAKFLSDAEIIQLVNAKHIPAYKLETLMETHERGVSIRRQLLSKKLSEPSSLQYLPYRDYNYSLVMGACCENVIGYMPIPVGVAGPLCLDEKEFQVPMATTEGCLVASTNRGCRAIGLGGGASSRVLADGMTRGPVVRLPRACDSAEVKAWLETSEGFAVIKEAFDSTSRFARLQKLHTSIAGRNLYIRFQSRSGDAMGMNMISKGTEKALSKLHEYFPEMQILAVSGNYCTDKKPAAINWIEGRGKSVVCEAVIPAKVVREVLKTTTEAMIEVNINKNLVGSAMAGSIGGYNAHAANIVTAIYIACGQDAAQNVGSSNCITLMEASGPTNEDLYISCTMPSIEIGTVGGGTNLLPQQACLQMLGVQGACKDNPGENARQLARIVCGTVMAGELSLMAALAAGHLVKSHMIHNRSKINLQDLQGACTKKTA

[2] = DRUGMATRIX: Phosphodiesterase PDE3 enzyme inhibition (substrate: [3H]cAMP + cAMP); type: tissue-based, Homo sapiens; conditions: platelet; Not Active = under 50% inhibition at 10 µM
[3] = DRUGMATRIX: Imidazoline I2, Central radioligand binding (ligand: [3H] Idazoxan); type: cell membranes, Rattus norvegicus, Wistar, Cerebral cortex, Membrane; conditions: Not Active = under 50% inhibition at 10 µM
Endothelin-1 receptor = biological target: T2, Endothelin-1 receptor (Homo sapiens, UniProt P25101); type: cell membranes, Membrane; conditions: cho-k1; further: in other assays of this panel Not Active means under 50% inhibition at 10 µM
T2 sequence (P25101 whole entry): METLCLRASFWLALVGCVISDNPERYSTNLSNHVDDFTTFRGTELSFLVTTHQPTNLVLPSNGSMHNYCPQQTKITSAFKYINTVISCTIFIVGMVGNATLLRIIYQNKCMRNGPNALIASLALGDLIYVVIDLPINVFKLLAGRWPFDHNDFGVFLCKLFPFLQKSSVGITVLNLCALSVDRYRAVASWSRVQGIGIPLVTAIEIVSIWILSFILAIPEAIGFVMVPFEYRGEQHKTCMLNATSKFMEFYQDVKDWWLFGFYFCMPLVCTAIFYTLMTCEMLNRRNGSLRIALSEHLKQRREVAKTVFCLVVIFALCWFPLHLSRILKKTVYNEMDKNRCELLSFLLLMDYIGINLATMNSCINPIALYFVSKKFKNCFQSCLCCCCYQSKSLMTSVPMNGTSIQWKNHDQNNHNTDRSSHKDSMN

Cytochrome P450 2C19 = Cytochrome P450 2C19 (Homo sapiens, UniProt P33261); conditions: bti-tn-5b1-4; further: in other assays of this panel Not Active means under 50% inhibition at 10 µM
Cytochrome P450 2C19, sequence (P33261 whole entry): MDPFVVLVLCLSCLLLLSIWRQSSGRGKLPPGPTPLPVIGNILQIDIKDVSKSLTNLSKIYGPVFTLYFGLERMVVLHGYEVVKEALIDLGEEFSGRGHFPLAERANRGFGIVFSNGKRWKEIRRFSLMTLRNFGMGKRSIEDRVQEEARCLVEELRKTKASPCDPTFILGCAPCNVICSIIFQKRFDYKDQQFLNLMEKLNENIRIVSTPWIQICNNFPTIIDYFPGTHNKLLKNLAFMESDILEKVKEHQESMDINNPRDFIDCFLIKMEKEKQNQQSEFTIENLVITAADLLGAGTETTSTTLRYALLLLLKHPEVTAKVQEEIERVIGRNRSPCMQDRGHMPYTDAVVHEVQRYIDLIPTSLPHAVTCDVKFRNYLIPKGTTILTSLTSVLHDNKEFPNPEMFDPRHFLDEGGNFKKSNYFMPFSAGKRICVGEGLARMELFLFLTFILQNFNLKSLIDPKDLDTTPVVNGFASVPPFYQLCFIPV

Progesterone receptor = biological target: T3, Progesterone receptor (Bos taurus, UniProt Q690N0); assay: DRUGMATRIX: Progesterone radioligand binding (ligand: [3H] R-5020); type: tissue-based, Uterus; conditions: Not Active = under 50% inhibition at 10 µM
T3 sequence (Q690N0 whole entry): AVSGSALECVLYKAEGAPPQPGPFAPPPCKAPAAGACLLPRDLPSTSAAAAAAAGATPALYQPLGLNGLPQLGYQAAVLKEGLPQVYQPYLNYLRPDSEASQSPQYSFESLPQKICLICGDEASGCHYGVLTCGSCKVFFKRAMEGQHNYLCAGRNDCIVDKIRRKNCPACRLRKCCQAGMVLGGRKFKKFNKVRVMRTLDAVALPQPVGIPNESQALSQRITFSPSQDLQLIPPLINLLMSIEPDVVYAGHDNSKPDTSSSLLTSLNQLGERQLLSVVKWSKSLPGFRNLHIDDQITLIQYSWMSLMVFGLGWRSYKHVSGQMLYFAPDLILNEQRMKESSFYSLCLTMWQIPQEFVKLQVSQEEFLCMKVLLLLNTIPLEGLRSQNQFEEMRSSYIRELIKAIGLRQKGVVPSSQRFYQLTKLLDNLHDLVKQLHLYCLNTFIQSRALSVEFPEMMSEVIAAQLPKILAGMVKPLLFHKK

Estrogen receptor beta, sequence (Q92731 whole entry): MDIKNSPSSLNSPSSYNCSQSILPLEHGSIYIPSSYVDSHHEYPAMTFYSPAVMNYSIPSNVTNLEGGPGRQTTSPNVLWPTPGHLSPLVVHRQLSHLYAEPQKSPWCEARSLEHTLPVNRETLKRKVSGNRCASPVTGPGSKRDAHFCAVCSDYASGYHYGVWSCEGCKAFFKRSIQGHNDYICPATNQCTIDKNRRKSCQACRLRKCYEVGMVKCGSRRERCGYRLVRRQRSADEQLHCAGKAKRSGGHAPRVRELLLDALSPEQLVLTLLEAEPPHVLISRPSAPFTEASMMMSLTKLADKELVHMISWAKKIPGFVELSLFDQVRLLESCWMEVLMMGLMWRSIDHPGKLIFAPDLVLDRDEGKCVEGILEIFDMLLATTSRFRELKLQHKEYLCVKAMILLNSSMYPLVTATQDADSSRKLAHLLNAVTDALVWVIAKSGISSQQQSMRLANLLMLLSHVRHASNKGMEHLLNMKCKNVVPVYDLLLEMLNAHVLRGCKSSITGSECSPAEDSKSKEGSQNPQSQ

Compound | IC50 (Estrogen receptor beta) | IC50 [1] | IC50 [2] | Ki [2] | IC50 [3] | Ki [3] | IC50 (Endothelin-1 receptor) | IC50 (Cytochrome P450 2C19) | Ki (Cytochrome P450 2C19) | IC50 (Progesterone receptor) | IC50 (Progesterone receptor; read-out: IC50) [nM] | Ki (Progesterone receptor; read-out: Ki) [nM] | IC50 ([1]; read-out: IC50) [nM] | IC50 ([3]; read-out: IC50) [nM] | Ki ([3]; read-out: Ki) [nM] | Ki (Estrogen receptor beta) | Ki [1] | Ki (Endothelin-1 receptor) | Ki (Progesterone receptor)
CC[C@@]1(O)C(=O)OCc2c1cc1n(c2=O)Cc2cc3c(CN(C)C)c(O)ccc3nc2-1 [TOPOTECAN] | Not Active | Not Active | Not Active | Not Active | Not Active | Not Active | Not Active | Not Active | Not Active | Not Active | – | – | – | – | – | – | – | – | –
Cc1ccc(Cl)c(Nc2ccccc2C(=O)O)c1Cl [MECLOFENAMIC ACID] | Not Active | Not Active | Not Active | Not Active | Not Active | Not Active | Not Active | Not Active | Not Active | Not Active | – | – | – | – | – | – | – | – | –
CCOc1cc(N)c(Cl)cc1C(=O)NCC1CN(Cc2ccc(F)cc2)CCO1 (stereo not given) [MOSAPRIDE] | Not Active | Not Active | Not Active | Not Active | Not Active | Not Active | Not Active | – | – | Not Active | – | – | – | – | – | – | – | – | –
C[C@]12CCC(=O)C[C@@H]1CC[C@@H]1[C@@H]2CC[C@]2(C)[C@@H](O)CC[C@@H]12 [STANOLONE] | Not Active | Not Active | Not Active | Not Active | Not Active | Not Active | Not Active | Not Active | Not Active | – | 1250 | 163 | – | – | – | – | – | – | –
O=C(O)c1cc(/N=N/c2ccc(S(=O)(=O)Nc3ccccn3)cc2)ccc1O [SULFASALAZINE] | Not Active | Not Active | Not Active | Not Active | Not Active | Not Active | Not Active | Not Active | Not Active | Not Active | – | – | – | – | – | – | – | – | –
CC[C@H](C)C(=O)O[C@H]1CCC=C2C=C[C@H](C)[C@H](CC[C@@H]3C[C@@H](O)CC(=O)O3)[C@H]21 [MEVASTATIN] | Not Active | – | Not Active | Not Active | Not Active | Not Active | Not Active | Not Active | Not Active | Not Active | – | – | 119 | – | – | – | – | – | –
CCN(CC)C(=S)SSC(=S)N(CC)CC | Not Active | Not Active | Not Active | Not Active | Not Active | Not Active | Not Active | Not Active | Not Active | Not Active | – | – | – | – | – | – | – | – | –
O=[As][O-].[Na+] [SODIUM ARSENITE] | Not Active | Not Active | Not Active | Not Active | Not Active | Not Active | Not Active | Not Active | Not Active | Not Active | – | – | – | – | – | – | – | – | –
Nc1nc(N)c2nc(-c3ccccc3)c(N)nc2n1 | Not Active | Not Active | Not Active | Not Active | Not Active | Not Active | Not Active | Not Active | Not Active | Not Active | – | – | – | – | – | – | – | – | –
CCN(CC)CCNC(=O)c1cc(Cl)c(N)cc1OC [METOCLOPRAMIDE] | Not Active | Not Active | Not Active | Not Active | – | – | Not Active | Not Active | Not Active | Not Active | – | – | – | 708 | 472 | – | – | – | –
CS(=O)(=O)c1ccc(C2=C(c3ccccc3)C(=O)OC2)cc1 [ROFECOXIB] | Not Active | Not Active | Not Active | Not Active | Not Active | Not Active | Not Active | Not Active | Not Active | Not Active | – | – | – | – | – | – | – | – | –
CC1(C)[C@H](C(=O)O)N2C(=O)C[C@H]2S1(=O)=O [SULBACTAM] | Not Active | Not Active | Not Active | Not Active | Not Active | Not Active | Not Active | Not Active | Not Active | Not Active | – | – | – | – | – | – | – | – | –
LEAD(IV) ACETATE | Not Active | Not Active | Not Active | Not Active | Not Active | Not Active | Not Active | Not Active | Not Active | Not Active | – | – | – | – | – | Not Active | Not Active | Not Active | Not Active
CC[C@H](C)[C@@H](CO[C@@H](Cc1ccccc1)C(=O)N[C@@H](CCS(C)(=O)=O)C(=O)OC(C)C)NC[C@@H](N)CS | Not Active | Not Active | Not Active | Not Active | Not Active | Not Active | Not Active | Not Active | Not Active | Not Active | – | – | – | – | – | – | – | – | –
CN1C(=O)OC(C)(C)C1=O [TRIMETHADIONE] | Not Active | Not Active | Not Active | Not Active | Not Active | Not Active | Not Active | Not Active | Not Active | Not Active | – | – | – | – | – | – | – | – | –
Cc1ccc(S(=O)(=O)NC(=O)NN2CCCCCC2)cc1 [TOLAZAMIDE] | Not Active | Not Active | Not Active | Not Active | Not Active | Not Active | Not Active | – | – | Not Active | – | – | – | – | – | – | – | – | –
CC(C)(C)NC[C@H](O)COc1cccc2c1CCCC2=O [LEVOBUNOLOL] | Not Active | Not Active | Not Active | Not Active | Not Active | Not Active | Not Active | Not Active | Not Active | Not Active | – | – | – | – | – | – | – | – | –
CCN1CCCC1CNC(=O)c1cc(S(N)(=O)=O)ccc1OC (stereo not given) [SULPIRIDE] | Not Active | Not Active | Not Active | Not Active | Not Active | Not Active | Not Active | Not Active | Not Active | Not Active | – | – | – | – | – | – | – | – | –
CCOC(=O)C1=C(C)NC(C)=C(C(=O)OCC)C1c1ccccc1/C=C/C(=O)OC(C)(C)C [LACIDIPINE] | Not Active | Not Active | Not Active | Not Active | Not Active | Not Active | Not Active | – | – | Not Active | – | – | – | – | – | – | – | – | –
CN1C[C@H](CNC(=O)OCc2ccccc2)C[C@@H]2c3cccc4c3c(cn4C)C[C@H]21 [METERGOLINE] | Not Active | Not Active | Not Active | Not Active | – | – | Not Active | – | – | Not Active | – | – | – | 1920 | 1280 | – | – | – | –
C1CCN2C[C@@H]3C[C@@H](CN4CCCC[C@@H]34)[C@H]2C1 [SPARTEINE] | Not Active | Not Active | Not Active | Not Active | Not Active | Not Active | Not Active | – | – | Not Active | – | – | – | – | – | – | – | – | –
